{"source": "patent EP0441218A2", "about": "“Anthracycline-glycosyl prodrugs, process for their preparation and their use in combination with functionalised tumour-specific enzyme conjugates” (BEHRINGWERKE Aktiengesellschaft, priority 1990, dated 1991)", "key": {"[1]": {"molecular_target": "T1, Human-Plazenta-α-Galactosidase A (Homo sapiens, UniProt P06280)", "T1 construct": "der aus Human-Plazenta isolierten α-Galactosidase A; from tissue; host or cells: human placenta", "T1 sequence (P06280 32-429)": "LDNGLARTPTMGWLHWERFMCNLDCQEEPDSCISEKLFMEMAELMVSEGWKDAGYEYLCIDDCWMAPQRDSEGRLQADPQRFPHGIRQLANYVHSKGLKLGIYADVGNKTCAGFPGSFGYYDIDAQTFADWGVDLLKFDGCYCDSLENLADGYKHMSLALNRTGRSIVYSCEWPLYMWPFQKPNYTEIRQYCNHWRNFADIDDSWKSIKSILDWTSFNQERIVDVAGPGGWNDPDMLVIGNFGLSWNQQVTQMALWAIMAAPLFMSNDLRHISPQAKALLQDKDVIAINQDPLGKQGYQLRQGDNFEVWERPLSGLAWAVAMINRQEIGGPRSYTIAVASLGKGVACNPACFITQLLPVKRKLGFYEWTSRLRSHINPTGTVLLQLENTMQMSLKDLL", "experiment": "Cleavage of the prodrug by human placenta α-galactosidase A (HPLC analysis)", "assay_type": "biochemical", "conditions": "placenta alpha-galactosidase a, 0.03 U/ml α-Galactosidase A, Phosphat-Puffer pH 5, 37 °C, dark, extrapolated value, read-out: Halbwertszeit der Spaltung (converted)", "experimental": "(§1) Spaltung von 14-O-α-D-Galacto-hexo-pyranosyl-doxorubicin (Verbindung 10) durch Human-Plazenta-α-Galactosidase A 0.5 mg der Ausgangsverbindung wurden in 0.5 ml Phosphat-Puffer, pH 5, enthaltend 0.03 U/ml der aus Human-Plazenta isolierten α-Galactosidase A gelöst und bei 37 °C im Dunklen inkubiert. Nach verschiedenen Inkubationszeiten wurden Proben des Inkubationsansatzes entnommen und direkt mittels Hochdruckflüssigkeitschromatographie analysiert (Säule: Nucleosil 100 (RP 18, 5 µm Teilchendurchmesser, 125 x 4.6 mm; Mobile Phase: Gradient aus Lösung A und B: 0 min - 20% A, 10 min - 30% A, 15 min - 30% A, Lösung A = 100% Acetonitril, Lösung B = 0.02 m Phosphat-Puffer pH 3.0; Flußrate: 1 ml/min; Detektion: Fluoreszenz, Ex 495 nm, Em 560 nm). Die Retentionszeit der Ausgangsverbindung betrug unter diesen Chromatographiebedingungen 9.0 min. Die während der Inkubation entstehende Verbindung wies eine mit Adriamycin identische Retentionszeit von 12.6 min auf.\n(§2) Die Halbwertszeit der Spaltung betrug unter dem beschriebenen Bedingungen ca. 54 h (extrapolierter Wert). Bei der Inkubation der Ausgangsverbindung in enzymfreier Pufferlösung blieb die Verbindung über diesen Zeitraum stabil."}, "[2]": {"molecular_target": "T2, Kaffeebohnen-α-Galactosidase (Coffea arabica, UniProt Q42656)", "T2 construct": "purchased Sigma", "T2 sequence (Q42656 16-378)": "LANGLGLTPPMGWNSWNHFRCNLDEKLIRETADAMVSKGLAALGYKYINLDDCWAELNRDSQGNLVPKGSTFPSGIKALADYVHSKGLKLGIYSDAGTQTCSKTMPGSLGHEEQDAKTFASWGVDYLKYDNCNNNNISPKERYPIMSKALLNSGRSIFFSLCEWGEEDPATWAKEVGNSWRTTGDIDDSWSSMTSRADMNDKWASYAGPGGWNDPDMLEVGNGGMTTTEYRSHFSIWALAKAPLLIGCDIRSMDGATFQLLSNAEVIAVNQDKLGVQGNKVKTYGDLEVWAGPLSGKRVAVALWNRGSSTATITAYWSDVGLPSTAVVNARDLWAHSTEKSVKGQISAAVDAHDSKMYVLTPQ", "experiment": "Cleavage of the prodrug by coffee bean α-galactosidase (HPLC analysis)", "assay_type": "biochemical", "conditions": "coffee bean alpha-galactosidase; 0.03 U/ml Kaffeebohnen-α-Galactosidase (Sigma), Phosphat-Puffer pH 5, 37 °C; read-out: Halbwertszeit der Spaltung", "experimental": "as §1\nSpaltung von 14-O-α-D-Galacto-hexo-pyranosyl-doxorubicin (Verbindung 10) durch Kaffebohnen-α-Galactosidase Die Ausgangsverbindung wurde unter den gleichen wie in Beispiel 11 beschriebenen Bedingungen in Gegenwart von 0.03 U/ml Kaffeebohnen-α-Galactosidase (Sigma) inkubiert. Die Halbwertszeit der Spaltung betrug in Gegenwart des Enzyms ca. 20 min."}, "[3]": {"experiment": "Stability of the prodrug on incubation in enzyme-free buffer", "assay_type": "physicochemical", "conditions": "Phosphat-Puffer pH 5, 37 °C, without enzyme, over the same period (ca. 54 h)", "experimental": "as §1, §2"}}}
{"smiles": "COc1cccc2c1C(=O)c1c(O)c3c(c(O)c1C2=O)C[C@@](O)(C(=O)CO[C@H]1O[C@H](CO)[C@H](O)[C@H](O)[C@H]1O)C[C@@H]3O[C@H]1C[C@H](N)[C@H](O)[C@H](C)O1", "note": "[Verbindung 10, 14-O-α-D-Galactohexopyranosyl-doxorubicin]", "values": [{"measurement": "half-life", "setting": "[1]", "result": "~54", "unit": "h"}, {"measurement": "half-life", "setting": "[2]", "result": "~0.333", "unit": "h"}, {"measurement": "Stability in enzymfreier Pufferlösung", "setting": "[3]", "result": "stabil"}]}
